This assay has as its system PMA-differentiated THP-1 cells. The assay can be described thus: IL-1β production in PMA-differentiated THP-1 cells stimulated with gramicidin (hTHP-1 assay containing 2% fetal bovine serum; Procedures 1 and 2). The class given is cell-based, human. Particulars: 2% fetal bovine serum. The method, boiled down:
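PMA-primed (20 ng/ml, 16-18 h) THP-1 cells in RPMI with 2% FBS, 50,000 cells/well, were preincubated 1 h with compound (0.0017-100 μM final, 0.37% DMSO), then stimulated 2 h with 5 μM gramicidin. Supernatant IL-1β measured by HTRF.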

[1] abbreviates: Table B4, class symbols, read-out: hTHP-1 IC50.
The mark [2] stands for this setting: Table B1, class symbols, read-out: Average IC50 of compounds in hTHP-1 assay: hTHP-1 IC50.

A word on the IC50: it is the concentration that inhibits the measured activity by half.

Where two headings read alike, the source gives them in different places.

`Cc1c(C(=O)O)nc2c(c1NC(=O)N=S(N)(=O)c1cnc(C(C)(C)O)s1)CCC2` (stereo not shown) [Example 636, 4-(3-(Amino(2-(2-hydroxypropan-2-yl)thiazol-5-yl)(oxo)-l6-sulfaneylidene)ureido)-3-methyl-6,7-dihydro-5H-cyclopenta[b]pyridine-2-carboxylic acid]: the IC50 (Homo sapiens, THP-1, Table B3, hTHP-1 assay, numeric values, read-out: IC50) is more than 30 µM. For the compound `Cc1c(C2CCC2)nc2c(c1NC(=O)N=S(N)(=O)c1cnc(C(C)(C)O)s1)CCC2` (single isomer, unassigned) [Compound 649b, (S) or (R)-N′-((2-cyclobutyl-3-methyl-6,7-dihydro-5H-cyclopenta[b]pyridin-4-yl)carbamoyl)-2-(2-hydroxypropan-2-yl)thiazole-5-sulfonimidamide], the IC50 (Homo sapiens, THP-1, Table B2, numeric bounds, read-out: hTHP-1 IC50) was more than 30 µM.

In the case of `CC1(C)CCc2c1nc1c(c2NC(=O)N=S(N)(=O)c2ccn(-c3ccccc3)n2)CCC1` (single isomer, unassigned) [Compound 659b, (R) or (S)-N′-((3,3-dimethyl-1,2,3,5,6,7-hexahydrodicyclopenta [b,e]pyridin-8-yl)carbamoyl)-1-phenyl-1H-pyrazole-3-sulfonimidamide], the IC50 (Table B2, class symbols, read-out: hTHP-1 IC50) was in the range of 0.2 to 1 µM. Regarding `CCn1cc(F)c(S(N)(=O)=NC(=O)Nc2c3c(nc(C(F)(F)F)c2C2CC2)CCC3)n1` (single isomer, unassigned) [Example 774, (S) or (R)-N′-((3-cyclopropyl-2-(trifluoromethyl)-6,7-dihydro-5H-cyclopenta[b]pyridin-4-yl)carbamoyl)-1-ethyl-4-fluoro-1H-pyrazole-3-sulfonimidamide], the half-inhibitory concentration (IC50) under setting [1] is 5 to 30 µM. For the compound `CC(C)c1ncc(F)c(C(C)C)c1NC(=O)N=S(N)(=O)c1cnc(C(C)(C)O)s1` (single isomer, unassigned) [Compound 164a, (R) or (S)-N′-((5-fluoro-2,4-diisopropylpyridin-3-yl)carbamoyl)-2-(2-hydroxypropan-2-yl)thiazole-5-sulfonimidamide], the half-inhibitory concentration (IC50) under setting [2] was 1 to 5 µM. In the case of `CC(C)(O)c1nc(CCO)c(S(N)(=O)=NC(=O)Nc2c3c(nc4c2CCC4)CCC3)s1` (single isomer, unassigned) [Compound 118b, (S) or (R)-N′-((1,2,3,5,6,7-hexahydrodicyclo-penta[b,e]pyridin-8-yl)carbamoyl)-4-(2-hydroxyethyl)-2-(2-hydroxypropan-2-yl)thiazole-5-sulfonimidamide], the IC50 (Homo sapiens, THP-1, Table B1, numeric bounds, read-out: Average IC50 of compounds in hTHP-1 assay: hTHP-1 IC50) was more than 24 µM. In the case of `CC(C)n1ccc(S(N)(=O)=NC(=O)Nc2c3c(nc4c2CCC4(C)C)CCC3)n1` (stereo not shown) [Compound 126, N′-((3,3-dimethyl-1,2,3,5,6,7-hexahydrodicyclopenta[b,e]pyridin-8-yl)carbamoyl)-1-isopropyl-1H-pyrazole-3-sulfonimidamide], under “Homo sapiens, THP-1, Table B1, class symbols, read-out: Average IC50 of compounds in hTHP-1 assay: hTHP-1 IC50”, the IC50 was in the range of 0.04 to 0.2 µM. Take `CC(C)c1ncc(F)c(C(C)C)c1NC(=O)N=S(N)(=O)c1cnc(C(C)(C)O)s1` (single isomer, unassigned) [Compound 164b, (S) or (R)-N′-((5-fluoro-2,4-diisopropylpyridin-3-yl)carbamoyl)-2-(2-hydroxypropan-2-yl)thiazole-5-sulfonimidamide]: the IC50 under setting [2] lay in the range of 5 to 30 µM.

Consider `CC(C)n1cc(F)c(S(N)(=O)=NC(=O)Nc2c3c(nc4c2CCC4)CCC3)n1` (stereo not shown) [Example 750, 4-Fluoro-N′-((1,2,3,5,6,7-hexahydrodicyclopenta[b,e]pyridin-8-yl)carbamoyl)-1-isopropyl-1H-pyrazole-3-sulfomidamide], for which the IC50 (Homo sapiens, THP-1, Table B4, class symbols, read-out: hTHP-1 IC50) is 0.2 to 1 µM. For the compound `CCn1cc(F)c(S(N)(=O)=NC(=O)Nc2c3c(nc(C)c2-c2ccccc2)CCC3)n1` (single isomer, unassigned) [Example 769, (R) or (S)-1-ethyl-4-fluoro-N′-((2-methyl-3-phenyl-6,7-dihydro-5H-cyclopenta[b]pyridin-4-yl)carbamoyl)-1H-pyrazole-3-sulfonimidamide], under setting [1], the IC50 lay within 5 to 30 µM.

These data come from patent publication US20230031406A1, “COMPOUNDS AND COMPOSITIONS FOR TREATING CONDITIONS ASSOCIATED WITH NLRP ACTIVITY” (Novartis AG, priority 2018, published 2023).
